Where two headings read alike, the source gives them in different places.
Conditions: SEM images; for Ave. Aspect Ratio (length/width): Hitachi S-300N, length divided by width
Method: All images were obtained using a Hitachi S-300N Scanning electron Microscope.
Procedure: Aspect ratio was determined by superimposing a micron scale over the particle images and visually comparing the width and length of the particles to the scale. Length divided by width determines the aspect ratio. The images were obtained using a Hitachi S-300N Scanning electron Microscope.

Structure (SMILES) | particles having an aspect ratio greater than 15 | Ave. Aspect Ratio (length/width) | Ave. Aspect Ratio (length/width) (listed as commercially available milled copper pyrithione)
On1ccccc1=S.On1ccccc1=S.[Cu] [Sample 513, copper pyrithione] | none of the particles | 4.3 | 4.3
On1ccccc1=S.On1ccccc1=S.[Cu] [Sample 507C, copper pyrithione] |  | 12.2 | 
On1ccccc1=S.On1ccccc1=S.[Cu] [Sample 508D, copper pyrithione] |  | 9.1 | 
